In patent US9370189B2, “Controlling Pseudomonas aeruginosa persister cells with GM-CSF” (priority 2012, dated 2016):

Key:
P. aeruginosa PAO1 = assay: Effect of GM-CSF on planktonic PAO1 total population and persister cells at stationary phase, co-treatment with antibiotic; assay type: cell-based, Pseudomonas aeruginosa
[1] = test system: P. aeruginosa PDO300 biofilm; assay: Effect of GM-CSF on 24-h PDO300 biofilm, alone and with antibiotic; assay type: cell-based, Pseudomonas aeruginosa; details: for average CFU/ml of biofilm cells reduced by: reduction, PDO300 biofilm
Protocol: (§1) This Example describes the treatment of biofilms made from P. aeruginosa PAO1, PDO300 and Escherichia coli K12, with GM-CSF introduced directly or together with an antibiotic to test the synergy.
(§2) In brief, after preparing an overnight culture, it was subcultured to an initial OD600 of 0.01 to a total volume of 20 mL M63 medium (for PAO1 and PDO300) or 20 ml LB medium (for E. coli K12) in a petri dish with 316L stainless steel coupons (1.75 cm×1 cm). The biofilm was grown for 24 h at 37° C. without shaking. After incubation, the coupons were washed by gently dipping in 0.85% NaCl twice using tweezers and were placed in new empty petri dishes.
(§3) To test the synergistic effects between GM-CSF (2.43 pg/mL or 0.17 pM) and antibiotics, a total of 8 coupons were analyzed. These 8 coupons were placed in 4 petri dishes (2 coupons in each dish). The two dishes were labeled as control and the other two as treatment samples. In the treatment samples, GM-CSF was added to 20 mL of 0.85% NaCl to a concentration of 2.43 pg/mL (or 0.17 pM). The control samples were supplemented with the same amount of PBS and BSA as present in the samples with 2.43 pg/ml (or 0.17 pM) GM-CSF. The coupons were incubated at 37° C. for 2 h.
(§4) After incubation, a control dish and a treatment dish was selected for studying the killing effect of 2.43 pg/ml GM-CSF on biofilm cells. Each coupon after gentle washing with 0.85% NaCl buffer, was placed in a test tube with 3 mL 0.85% NaCl buffer in each. They were sonicated (B200, Sinosonic Industrial Co., Ltd., Taiwan) for 4 mins to release the biofilm cells in the buffer. After vortexing for 1 min, they were plated on LB agar plates using drop plate method. The CFU was counted after incubation at 37° C. for 24 h to count the total number of viable cells. Furthermore, the synergistic effect of antibiotics with GM-CSF was evaluated with additional 3.5 h treatment with antibiotic at 37° C. After incubation, drop plate method was performed and the CFU was counted to understand if there is a synergistic effect.

E. coli K12 biofilm = assay: Effect of GM-CSF on 24-h E. coli K12 biofilm, alone and with antibiotic; assay type: cell-based, Escherichia coli
Protocol: as §1, §2, §3, §4

Substance: GM-CSF: granulocyte macrophage-colony stimulating factor, a cytokine secreted by macrophages; recombinant human GM-CSF (R&D systems) in binding tests
- % change in avg. CFU/mL by GM-CSF (compared to GM-CSF free control) (P. aeruginosa PAO1; persisters, 1.7 pM GM-CSF, 200 μg/mL ciprofloxacin): −53.8 ± 16.1%
- % change in avg. CFU/mL by GM-CSF (compared to GM-CSF free control) (P. aeruginosa PAO1; persisters, 1.7 pM GM-CSF, 200 μg/mL gentamicin): −12.7 ± 8.8%
- % change in avg. CFU/mL by GM-CSF (compared to GM-CSF free control) (P. aeruginosa PAO1; persisters, 1.7 pM GM-CSF, 200 μg/mL tobramycin): −82.7 ± 2.3%
- % change in avg. CFU/mL by GM-CSF (compared to GM-CSF free control) (P. aeruginosa PAO1; persisters, 17 pM GM-CSF, 200 μg/mL ciprofloxacin): −74.0 ± 2.9%
- % change in avg. CFU/mL by GM-CSF (compared to GM-CSF free control) (P. aeruginosa PAO1; persisters, 17 pM GM-CSF, 200 μg/mL gentamicin): −25.4 ± 10.6%
- % change in avg. CFU/mL by GM-CSF (compared to GM-CSF free control) (P. aeruginosa PAO1; persisters, 17 pM GM-CSF, 200 μg/mL tetracycline): −91.2 ± 3.2%
- % change in avg. CFU/mL by GM-CSF (compared to GM-CSF free control) (P. aeruginosa PAO1; persisters, 17 pM GM-CSF, 200 μg/mL tobramycin): −86.5 ± 1.7%
- % change in avg. CFU/mL by GM-CSF (compared to GM-CSF free control) (P. aeruginosa PAO1; total viable cells, 1.7 pM GM-CSF, 200 μg/mL ciprofloxacin): −19.5 ± 15.6%
- % change in avg. CFU/mL by GM-CSF (compared to GM-CSF free control) (P. aeruginosa PAO1; total viable cells, 1.7 pM GM-CSF, 200 μg/mL gentamicin): −13.1 ± 7.4%
- % change in avg. CFU/mL by GM-CSF (compared to GM-CSF free control) (P. aeruginosa PAO1; total viable cells, 1.7 pM GM-CSF, 200 μg/mL tobramycin): −9.4 ± 20.0%
- % change in avg. CFU/mL by GM-CSF (compared to GM-CSF free control) (P. aeruginosa PAO1; total viable cells, 17 pM GM-CSF, 200 μg/mL ciprofloxacin): −10.3 ± 21.5%
- % change in avg. CFU/mL by GM-CSF (compared to GM-CSF free control) (P. aeruginosa PAO1; total viable cells, 17 pM GM-CSF, 200 μg/mL gentamicin): −15.9 ± 7.4%
- % change in avg. CFU/mL by GM-CSF (compared to GM-CSF free control) (P. aeruginosa PAO1; total viable cells, 17 pM GM-CSF, 200 μg/mL tetracycline): −1.0 ± 12.4%
- % change in avg. CFU/mL by GM-CSF (compared to GM-CSF free control) (P. aeruginosa PAO1; total viable cells, 17 pM GM-CSF, 200 μg/mL tobramycin): +3.1 ± 18.6%
- % change in avg. CFU/ml after adding factor + CIP ([1]; 24-h PDO300 biofilm, 2.43 pg/mL GM-CSF with 200 μg/mL ciprofloxacin): −14.0%
- % change in avg. CFU/ml after adding factor + TOB ([1]; 24-h PDO300 biofilm, 2.43 pg/mL GM-CSF with 200 μg/mL tobramycin): −13.0%
- % change in avg. CFU/ml after adding factor + GEN ([1]; 24-h PDO300 biofilm, 2.43 pg/ml GM-CSF with 200 μg/mL gentamicin): −10.8%
- % change in avg. CFU/ml after adding factor + TET ([1]; 24-h PDO300 biofilm, 2.43 pg/ml GM-CSF with 200 μg/mL tetracycline): −7.3%
- average CFU/ml of biofilm cells reduced by ([1]; 2.43 pg/mL GM-CSF alone, average of 2 experiments): 5.64%
- average CFU/ml of biofilm cells reduced by ([1]; 2.43 pg/mL GM-CSF in the presence of 200 μg/mL ciprofloxacin): 8.8%
- average CFU/ml of biofilm cells reduced by ([1]; 2.43 pg/mL GM-CSF in the presence of 200 μg/mL gentamicin): 5.6%
- average CFU/ml of biofilm cells reduced by ([1]; 2.43 pg/mL GM-CSF in the presence of 200 μg/mL tetracycline): 1.8%
- average CFU/ml of biofilm cells reduced by ([1]; 2.43 pg/mL GM-CSF in the presence of 200 μg/mL tobramycin): 7.7%
- % change in avg. CFU/ml after adding factor + CIP (E. coli K12 biofilm; 24-h E. coli K12 biofilm, 2.43 pg/mL GM-CSF with 100 μg/mL ciprofloxacin): +4.8%
- % change in avg. CFU/ml after adding factor + TET (E. coli K12 biofilm; 24-h E. coli K12 biofilm, 2.43 pg/mL GM-CSF with 100 μg/mL tetracycline): +3.6%
- % change in avg. CFU/ml after adding factor + TOB (E. coli K12 biofilm; 24-h E. coli K12 biofilm, 2.43 pg/mL GM-CSF with 100 μg/mL tobramycin): +4.2%
- % change in avg. CFU/ml after adding factor + GEN (E. coli K12 biofilm; 24-h E. coli K12 biofilm, 2.43 pg/mL GM-CSF with 125 μg/mL gentamicin): +8.1%
- average CFU/mL of biofilm cells changed by (E. coli K12 biofilm; E. coli K12 biofilm, 2.43 pg/mL GM-CSF alone, average of 2 experiments): +4.83%
- average CFU/ml of biofilm cells changed by (E. coli K12 biofilm; E. coli K12 biofilm, 2.43 pg/mL GM-CSF in the presence of 100 μg/mL ciprofloxacin): +1.2%
- average CFU/ml of biofilm cells changed by (E. coli K12 biofilm; E. coli K12 biofilm, 2.43 pg/mL GM-CSF in the presence of 100 μg/mL tetracycline): −2.4%
- average CFU/ml of biofilm cells changed by (E. coli K12 biofilm; E. coli K12 biofilm, 2.43 pg/mL GM-CSF in the presence of 100 μg/mL tobramycin): +0.6%
- average CFU/ml of biofilm cells changed by (E. coli K12 biofilm; E. coli K12 biofilm, 2.43 pg/mL GM-CSF in the presence of 125 μg/mL gentamicin): +1.9%
